Structures are written as SMILES.

Assay [1] deals with T1, human recombinant adrenergic α1D receptor (Homo sapiens, UniProt P25100).
T1 construct: expressed in transfected cells; host or cells: HEK-293
T1 sequence (P25100 1-572): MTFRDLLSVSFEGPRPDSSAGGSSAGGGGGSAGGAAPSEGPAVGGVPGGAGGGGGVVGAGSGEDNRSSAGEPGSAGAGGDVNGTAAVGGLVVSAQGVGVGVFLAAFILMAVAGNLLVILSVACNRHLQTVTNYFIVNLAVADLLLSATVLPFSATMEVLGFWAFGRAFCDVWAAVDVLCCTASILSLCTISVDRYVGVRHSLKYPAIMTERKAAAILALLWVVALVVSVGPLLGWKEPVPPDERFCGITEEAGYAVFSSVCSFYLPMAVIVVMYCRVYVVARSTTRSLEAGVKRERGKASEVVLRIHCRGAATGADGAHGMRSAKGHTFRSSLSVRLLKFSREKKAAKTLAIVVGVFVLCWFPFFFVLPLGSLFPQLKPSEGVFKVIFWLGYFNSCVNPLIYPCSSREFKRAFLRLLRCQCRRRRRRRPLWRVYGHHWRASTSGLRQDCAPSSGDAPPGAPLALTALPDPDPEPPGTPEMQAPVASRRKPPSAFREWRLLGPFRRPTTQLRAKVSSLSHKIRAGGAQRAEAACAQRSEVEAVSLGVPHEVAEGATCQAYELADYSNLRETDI
In words: Radioligand binding, adrenergic α1D ([3H]Prazosin). Particulars: 0.1 μM compound; read-out: Percentage inhibition of ligand binding, Adrenergic α1D. The procedure:
Compounds were incubated with 0.6 nM [3H]Prazosin for 60 min at 25° C. Non-specific binding was estimated in the presence of 10 μM phentolamine. Receptor proteins were filtered and washed, the filters were then counted to determine [3H]Prazosin specifically bound. […] Biochemical assay results are presented as the percent inhibition of specific binding in Table B1.

For assay [2], the target named is T2, human recombinant adrenergic α2B receptor (Homo sapiens, UniProt P18089).
T2 construct: expressed in transfected cells; host or cells: CHO-K1
T2 sequence (P18089 1-450): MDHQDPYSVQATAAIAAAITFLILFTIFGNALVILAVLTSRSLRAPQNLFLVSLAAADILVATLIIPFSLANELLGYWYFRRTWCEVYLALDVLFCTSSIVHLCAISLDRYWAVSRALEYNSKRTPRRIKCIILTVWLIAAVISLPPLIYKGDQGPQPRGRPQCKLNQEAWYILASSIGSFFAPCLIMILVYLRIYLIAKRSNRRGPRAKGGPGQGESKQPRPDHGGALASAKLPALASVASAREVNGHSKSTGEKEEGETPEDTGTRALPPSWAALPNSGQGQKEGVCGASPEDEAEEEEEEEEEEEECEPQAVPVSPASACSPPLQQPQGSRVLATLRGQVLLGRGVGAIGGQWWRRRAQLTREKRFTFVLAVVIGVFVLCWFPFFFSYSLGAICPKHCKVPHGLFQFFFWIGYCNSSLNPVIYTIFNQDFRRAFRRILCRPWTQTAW
In words: Radioligand binding, adrenergic α2B ([3H]Rauwolscine). As to conditions: 0.1 μM compound; read-out: Percentage inhibition of ligand binding, Adrenergic α2B. The method, boiled down: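 Membranes from CHO-K1 cells expressing human recombinant α2B, in 50 mM Tris-HCl pH 7.4, 12.5 mM MgCl2, 1 mM EDTA, 0.2% BSA, incubated with compound and 2.5 nM [3H]Rauwolscine, 60 min, 25 °C.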

In assay [3] the target is T3, rat adrenergic α1B receptor (Rattus norvegicus, UniProt P15823).
T3 construct: rat adrenergic α1B receptor obtained from Wistar Rat liver; from tissue; host or cells: Wistar rat liver
T3 sequence (P15823 1-515): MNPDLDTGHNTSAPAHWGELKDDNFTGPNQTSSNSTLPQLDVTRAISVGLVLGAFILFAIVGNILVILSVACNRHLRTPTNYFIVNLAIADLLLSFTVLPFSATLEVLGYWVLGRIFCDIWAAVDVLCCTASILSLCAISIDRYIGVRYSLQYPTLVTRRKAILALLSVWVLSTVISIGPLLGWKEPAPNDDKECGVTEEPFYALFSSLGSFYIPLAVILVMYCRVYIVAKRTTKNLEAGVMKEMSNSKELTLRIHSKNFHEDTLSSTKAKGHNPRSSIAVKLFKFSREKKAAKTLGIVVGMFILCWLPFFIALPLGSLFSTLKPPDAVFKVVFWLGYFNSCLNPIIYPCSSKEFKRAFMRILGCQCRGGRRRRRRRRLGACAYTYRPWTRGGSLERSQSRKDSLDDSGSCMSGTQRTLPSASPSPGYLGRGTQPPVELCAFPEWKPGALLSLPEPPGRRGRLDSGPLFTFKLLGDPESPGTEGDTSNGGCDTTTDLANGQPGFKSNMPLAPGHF
The assay is described as follows: Radioligand binding, adrenergic α1B ([3H]Prazosin). As to conditions: 0.1 μM compound; read-out: Percentage inhibition of ligand binding, Adrenergic α1B. The gist of the method: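 Rat α1B receptor from Wistar rat liver was incubated with 0.25 nM [3H]prazosin for 60 min at 25 °C in 50 mM Tris-HCl, pH 7.4, 0.5 mM EDTA. Non-specific binding was defined with 10 μM phentolamine. Bound radioligand was measured by filtration and counting, reported as percent inhibition of specific binding.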

Assay [4] deals with T4, human recombinant adrenergic α2A receptor (Homo sapiens, UniProt P08913).
T4 construct: expressed in transfected cells; host or cells: insect Sf9 cells
T4 sequence (P08913 1-465): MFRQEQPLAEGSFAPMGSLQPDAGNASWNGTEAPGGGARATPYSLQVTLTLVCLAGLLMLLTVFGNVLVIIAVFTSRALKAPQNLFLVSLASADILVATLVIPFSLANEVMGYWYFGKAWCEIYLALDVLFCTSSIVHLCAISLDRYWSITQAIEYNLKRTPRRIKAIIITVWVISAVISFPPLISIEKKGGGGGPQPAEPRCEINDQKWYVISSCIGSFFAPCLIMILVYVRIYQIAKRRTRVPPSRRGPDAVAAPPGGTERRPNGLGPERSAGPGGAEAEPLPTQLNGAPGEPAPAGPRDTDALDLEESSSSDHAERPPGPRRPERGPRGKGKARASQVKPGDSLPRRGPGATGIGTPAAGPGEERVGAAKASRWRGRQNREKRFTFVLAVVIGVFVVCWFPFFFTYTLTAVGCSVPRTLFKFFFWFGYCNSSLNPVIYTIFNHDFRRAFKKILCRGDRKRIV
The assay is described as follows: Radioligand binding, adrenergic α2A ([3H]MK-912). As to conditions: 0.1 μM compound; read-out: Percentage inhibition of ligand binding, Adrenergic α2A. The method, boiled down:
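Sf9 membranes, 1 nM [3H]MK-912, 60 min, 25 °C, Tris-HCl pH 7.4/MgCl2/EDTA buffer. NSB: 10 μM WB-4101. Filtration, counting; % inhibition of specific binding.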

For the compound `Cc1ccc2c(c1)c1c(n2CCc2cccc(N(C)C)c2)CCN(C)C1` [compound 298, {3-[2-(2,8-dimethyl-1,2,3,4-tetrahydro-pyrido[4,3-b]indol-5-yl)-ethyl]-phenyl}-dimethyl-amine], the inhibition at 0.1 µM in assay [1] was 17%; in assay [2] it was 51%; in assay [3] it was 60%; in assay [4], 54%.

As to `Cc1ccc(CCn2c3c(c4cc(C)ccc42)CN(C)CC3)nc1` [compound 299, 2,8-dimethyl-5-[2-(5-methyl-pyridin-2-yl)-ethyl]-2,3,4,5-tetrahydro-1H-pyrido[4,3-b]indole], the inhibition at 0.1 µM in assay [1] worked out at 47%; in assay [2] it was 54%; in assay [3], 78%; in assay [4] it was 52%.

As for `Cc1ccc2c(c1)c1c(n2C2=C(c3cccnc3)CCC2)CCN(C)C1` [compound 300, 2,8-dimethyl-5-(2-(pyridin-3-yl)cyclopent-1-enyl)-2,3,4,5-tetrahydro-1H-pyrido[4,3-b]indole], the inhibition at 0.1 µM in assay [1] stood at 29%; in assay [2], 86%; in assay [3], 14%; in assay [4], 67%.

Regarding `Cc1ccc2c(c1)c1c(n2C2=C(c3ccc(F)cc3)CCC2)CCN(C)C1` [compound 301, 5-(2-(4-fluorophenyl)cyclopent-1-enyl)-2,8-dimethyl-2,3,4,5-tetrahydro-1H-pyrido[4,3-b]indole], the inhibition at 0.1 µM in assay [1] turned out to be 36%; in assay [2], 84%; in assay [3], 29%; in assay [4], 87%.

`Cc1ccc2c(c1)c1c(n2C2=C(c3sccc3C)CCC2)CCN(C)C1` [compound 302, 2,8-dimethyl-5-(2-(3-methylthiophen-2-yl)cyclopent-1-enyl)-2,3,4,5-tetrahydro-1H-pyrido[4,3-b]indole]: the inhibition at 0.1 µM in assay [1] was found to be 17%; in assay [2], 35%; in assay [3], 23%; in assay [4], 81%.

On to `Cc1ccc2c(c1)c1c(n2C2=C(c3cnc(N(C)C)nc3)CCC2)CCN(C)C1` [compound 303, 5-(2-(2,8-dimethyl-3,4-dihydro-1H-pyrido[4,3-b]indol-5(2H)-yl)cyclopent-1-enyl)-N,N-dimethylpyrimidin-2-amine], for which the inhibition at 0.1 µM was determined as 51% in assay [1], 71% in assay [2], 16% in assay [3] and 62% in assay [4].

As for `Cc1csc(C2=C(n3c4c(c5cc(C)ccc53)CN(C)CC4)CCC2)c1` [compound 304, 2,8-dimethyl-5-(2-(4-methylthiophen-2-yl)cyclopent-1-enyl)-2,3,4,5-tetrahydro-1H-pyrido[4,3-b]indole], the inhibition at 0.1 µM in assay [1] came to 27%; in assay [2] it was 81%; in assay [3], 15%; in assay [4], 79%.

In the case of `Cc1ccc2c(c1)c1c(n2C2=C(c3cc4ccccc4s3)CCC2)CCN(C)C1` [compound 305, 5-(2-(benzo[b]thiophen-2-yl)cyclopent-1-enyl)-2,8-dimethyl-2,3,4,5-tetrahydro-1H-pyrido[4,3-b]indole], the inhibition at 0.1 µM in assay [1] is 41%; in assay [2], 79%; in assay [3], 20%; in assay [4], 93%.

As to `Cc1ccc2c(c1)c1c(n2C2=C(c3cccc4ccccc34)CCC2)CCN(C)C1` [compound 306, 2,8-dimethyl-5-(2-(naphthalen-1-yl)cyclopent-1-enyl)-2,3,4,5-tetrahydro-1H-pyrido[4,3-b]indole], the inhibition at 0.1 µM stood at 12% in assay [1], 14% in assay [2], 18% in assay [3] and 78% in assay [4].

On to `Cc1ccc2c(c1)c1c(n2C2=C(c3ccnn3C)CCC2)CCN(C)C1` [compound 309, 2,8-dimethyl-5-(2-(1-methyl-1H-pyrazol-5-yl)cyclopent-1-enyl)-2,3,4,5-tetrahydro-1H-pyrido[4,3-b]indole], for which the inhibition at 0.1 µM in assay [1] is 40%; in assay [2] it was 37%; in assay [3], 23%; in assay [4], 57%.

As for `C/C(=C\n1c2c(c3cc(C)cc(C)c31)CN(C)CC2)c1cccc(S(C)(=O)=O)c1` [compound 310], the inhibition at 0.1 µM stood at 47% in assay [1], 87% in assay [2], 63% in assay [3] and 69% in assay [4].

In the case of `C/C(=C\n1c2c(c3cc(C)ccc31)CN(C)CC2)c1ccc2cnccc2c1` [compound 311], the inhibition at 0.1 µM in assay [1] was determined as 79%; in assay [2], 97%; in assay [3] it was 87%; in assay [4], 91%.

In the case of `C/C(=C\n1c2c(c3cc(C)cc(C)c31)CN(C)CC2)c1ccncc1` [compound 312], the inhibition at 0.1 µM in assay [1] amounted to 50%; in assay [2], 93%; in assay [3] it was 71%; in assay [4], 56%.

As to `Cc1ccc2c(c1)c1c(n2C#Cc2cccc3cnccc23)CCN(C)C1` [compound 313, 5-isoquinolin-5-ylethynyl-2,8-dimethyl-2,3,4,5-tetrahydro-1H-pyrido[4,3-b]indole], the inhibition at 0.1 µM amounted to 53% in assay [1], 73% in assay [2], 92% in assay [3] and 73% in assay [4].

In the case of `Cc1ccc2c(c1)c1c(n2CCc2ccc(C)nc2)C(c2ccccc2)N(C)CC1` (stereo not drawn) [compound 314], the inhibition at 0.1 µM in assay [1] is 71%; in assay [2], 50%; in assay [3], 92%; in assay [4], 91%.

A word on the inhibition: it is the share of the control response that was lost under treatment.
